Reference: patent US7842710B2, “Carboxamides” (Bayer Cropscience AG, priority 2004, dated 2010)

Assay: logP determination by HPLC on a reverse phase column (C18), EEC Directive 79/831 Annex V.A8
Format: physicochemical
Conditions: HPLC C18, 43° C.; for chromatographic logP: reverse phase HPLC column (C18), pH 2.3; for logP (pH 2.3): Table 1
Description: The specified logP values are determined by HPLC on a reverse phase column (C18) in accordance with EEC Directive 79/831 Annex V.A8. Temperature: 43° C. Eluents for the measurement in the acid range (pH 2.3): 0.1% aqueous phosphoric acid, acetonitrile; linearer gradient of 10% acetonitrile to 90% acetonitrile. Calibration is performed with unbranched alkyl-2-ones (with 3 to 16 carbon atoms) with known logP values (determination of the logP values based on retention times by linear interpolation between two sequential alkyl ketones).

Structure (SMILES) | chromatographic logP | logP (pH 2.3)
CC(C)S(=O)(=O)C(C)c1ccccc1N (stereo not drawn) [III-2, 2-[1-(isopropylsulfonyl)ethyl]aniline] | 1.28 | 
CC(C)SCc1ccccc1N [III-3, 2-[1-(isopropylthio)methyl]aniline] | 1.94 | 
CC(C)NC(C)c1ccccc1N (stereo not drawn) [III-4, 2-[1-(isopropylamino)ethyl]aniline] | 0.05 | 
Cn1cc(C(=O)Nc2ccccc2CO)c(C(F)(F)F)n1 [IV-1, N-[2-(hydroxymethyl)phenyl]-1-methyl-3-(trifluoromethyl)-1H-pyrazole-4-carboxamide] | 1.55 | 
CC(C)S(=O)(=O)Cc1ccccc1[N+](=O)[O-] [VI-3, 1-[(isopropylsulfonyl)methyl]-2-nitrobenzene] | 1.63 | 
CC(C)SC(C)c1ccccc1[N+](=O)[O-] (stereo not drawn) [VII-1, 1-[1-(isopropylthio)ethyl]-2-nitrobenzene] | 3.89 | 
CC(C)SCc1ccccc1[N+](=O)[O-] [VII-2, 1-[1-(isopropylthio)methyl]-2-nitrobenzene] | 3.28 | 
CC(C)NC(C)c1ccccc1[N+](=O)[O-] (stereo not drawn) [VII-5, N-[1-(2-nitrophenyl)ethyl]propane-2-amine] | 0.55 | 
CC(Cl)c1ccccc1[N+](=O)[O-] (stereo not drawn) [VIII-1, 1-(1-chloroethyl)-2-nitrobenzene] | 2.87 | 
CC(O)c1ccccc1[N+](=O)[O-] (stereo not drawn) [XI-1, 1-(2-nitrophenyl)ethanol] | 1.49 | 
COCc1ccccc1NC(=O)C1=C(C)OCC1 [compound 1] |  | 2.18
CC1=C(C(=O)Nc2ccccc2C(C)S(=O)(=O)C(C)C)SCCO1 (stereo not drawn) [compound 2] |  | 2.07
CC(C)S(=O)(=O)C(C)c1ccccc1NC(=O)c1ccccc1Br (stereo not drawn) [compound 3] |  | 2.30
CC(C)S(=O)(=O)C(C)c1ccccc1NC(=O)c1cccnc1Cl (stereo not drawn) [compound 5] |  | 1.68
CC(C)S(=O)(=O)C(C)c1ccccc1NC(=O)c1ccccc1I (stereo not drawn) [compound 7] |  | 2.43
Cc1occc1C(=O)Nc1ccccc1C(C)S(=O)(=O)C(C)C (stereo not drawn) [compound 8] |  | 2.21
Cc1nc(C(F)(F)F)c(C(=O)Nc2ccccc2C(C)S(=O)(=O)C(C)C)s1 (stereo not drawn) [compound 9] |  | 2.35
CC(C)S(=O)(=O)C(C)c1ccccc1NC(=O)C1=C(C(F)(F)F)OCCS1 (stereo not drawn) [compound 10] |  | 2.39
Cc1nn(C)c(F)c1C(=O)Nc1ccccc1C(C)S(=O)(=O)C(C)C (stereo not drawn) [compound 11] |  | 1.66
CC(C)S(=O)(=O)C(C)c1ccccc1NC(=O)c1ccccc1Cl (stereo not drawn) [compound 12] |  | 2.23
Cc1nc(C(F)F)c(C(=O)Nc2ccccc2C(C)S(=O)(=O)C(C)C)s1 (stereo not drawn) [compound 13] |  | 2.16

Structure (SMILES) | chromatographic logP | logP (pH 2.3)
Cc1nn(C)cc1C(=O)Nc1ccccc1C(C)S(=O)(=O)C(C)C (stereo not drawn) [compound 14] |  | 1.46
CC(C)S(=O)(=O)C(C)c1ccccc1NC(=O)c1cn(C)nc1C(F)(F)F (stereo not drawn) [compound 15] |  | 2.09
CC(C)S(=O)(=O)C(C)c1ccccc1NC(=O)c1cn(C)nc1C(F)F (stereo not drawn) [compound 16] |  | 1.86
Cc1nn(C)cc1C(=O)Nc1ccccc1C(C)SC(C)C (stereo not drawn) [compound 17] |  | 2.53
CC(C)SC(C)c1ccccc1NC(=O)c1cn(C)nc1C(F)(F)F (stereo not drawn) [compound 18] |  | 3.27
Cc1nn(C)c(F)c1C(=O)Nc1ccccc1C(C)SC(C)C (stereo not drawn) [compound 19] |  | 2.98
Cc1sccc1C(=O)Nc1ccccc1C(C)SC(C)C (stereo not drawn) [compound 20] |  | 4.03
CC(C)SC(C)c1ccccc1NC(=O)c1ccccc1Cl (stereo not drawn) [compound 21] |  | 3.74
CC(C)SC(C)c1ccccc1NC(=O)c1cccnc1Cl (stereo not drawn) [compound 22] |  | 2.95
CC(C)SC(C)c1ccccc1NC(=O)c1ccccc1C(F)(F)F (stereo not drawn) [compound 23] |  | 3.90
Cc1occc1C(=O)Nc1ccccc1C(C)SC(C)C (stereo not drawn) [compound 24] |  | 3.71
Cc1nc(C(F)(F)F)c(C(=O)Nc2ccccc2C(C)SC(C)C)s1 (stereo not drawn) [compound 25] |  | 3.73
Cc1nc(C(F)F)c(C(=O)Nc2ccccc2CSC(C)C)s1 [compound 35] |  | 3.27
CC(C)SCc1ccccc1NC(=O)c1cn(C)nc1C(F)(F)F [compound 36] |  | 3.05
CC(C)SCc1ccccc1NC(=O)C1=C(C(F)(F)F)OCCS1 [compound 37] |  | 3.48
CC(C)SCc1ccccc1NC(=O)c1cn(C)nc1C(F)F [compound 38] |  | 2.76
CC(C)SCc1ccccc1NC(=O)c1ccccc1I [compound 39] |  | 3.68
O=C(Nc1ccccc1COC(=O)C(Cl)Cl)c1ccccc1C(F)(F)F [compound 50] |  | 3.15
Cc1nn(C)c(F)c1C(=O)Nc1ccccc1COC(=O)C(C)C [compound 51] |  | 2.39
Cc1nn(C)c(F)c1C(=O)Nc1ccccc1COC(=O)C(Cl)Cl [compound 52] |  | 2.36
CC(C)C(=O)OCc1ccccc1NC(=O)c1ccccc1C(F)(F)F [compound 53] |  | 3.24

Structure (SMILES) | chromatographic logP | logP (pH 2.3)
CC(C)OCc1ccccc1NC(=O)c1ccccc1C(F)(F)F [compound 54] |  | 2.51
CC(C)C(=O)OCc1ccccc1NC(=O)c1cn(C)nc1C(F)(F)F [compound 55] |  | 2.74
Cn1cc(C(=O)Nc2ccccc2COC(=O)C(Cl)Cl)c(C(F)(F)F)n1 [compound 56] |  | 2.69
CC(C)C(=O)OCc1ccccc1NC(=O)c1cccnc1Cl [compound 57] |  | 2.38
O=C(Nc1ccccc1COC(=O)C(Cl)Cl)c1cccnc1Cl [compound 58] |  | 2.38
CC(C)C(=O)OCc1ccccc1N(C(=O)c1cccnc1Cl)C(=O)C(C)C [compound 59] |  | 3.49
CC(=O)OC(C)(C)CCc1ccccc1NC(=O)c1ccccc1C(F)(F)F [compound 61] |  | 3.30
Cn1cc(C(=O)Nc2ccccc2CCO)c(C(F)(F)F)n1 [compound 62] |  | 1.62
Cc1nn(C)c(F)c1C(=O)Nc1ccccc1CCO [compound 63] |  | 1.21
CC(C)C(=O)OCCc1ccccc1NC(=O)c1cn(C)nc1C(F)(F)F [compound 64] |  | 2.79
Cn1cc(C(=O)Nc2ccccc2CCO[Si](C)(C)C(C)(C)C)c(C(F)(F)F)n1 [compound 65] |  | 4.59
Cn1cc(C(=O)Nc2ccccc2CCOC(=O)C(Cl)Cl)c(C(F)(F)F)n1 [compound 66] |  | 2.76
Cc1nn(C)c(F)c1C(=O)Nc1ccccc1CCOC(=O)C(C)C [compound 67] |  | 2.40
Cc1nn(C)c(F)c1C(=O)Nc1ccccc1CCOC(=O)C(Cl)Cl [compound 68] |  | 2.43
Cc1nn(C)c(F)c1C(=O)Nc1ccccc1CCO[Si](C)(C)C(C)(C)C [compound 69] |  | 4.49
CCCC(C)SC(C)c1ccccc1NC(=O)c1ccccc1C(F)(F)F (stereo not drawn) [compound 70] |  | 4.71
CCCC(C)SC(C)c1ccccc1NC(=O)c1ccccc1Cl (stereo not drawn) [compound 72] |  | 4.60
CCC(C)SC(C)c1ccccc1NC(=O)c1ccccc1Cl (stereo not drawn) [compound 73] |  | 4.17
CCC(C)SC(C)c1ccccc1NC(=O)c1ccoc1C (stereo not drawn) [compound 74] |  | 4.17
CCC(C)SC(C)c1ccccc1NC(=O)c1ccccc1C(F)(F)F (stereo not drawn) [compound 75] |  | 4.31
CCCC(C)SC(C)c1ccccc1NC(=O)c1ccoc1C (stereo not drawn) [compound 77] |  | 4.61

Structure (SMILES) | chromatographic logP | logP (pH 2.3)
CCC(C)SC(C)c1ccccc1NC(=O)c1sc(C)nc1C(F)F (stereo not drawn) [compound 78] |  | 3.95
CCCC(C)SC(C)c1ccccc1NC(=O)c1sc(C)nc1C(F)F (stereo not drawn) [compound 79] |  | 4.36
CCC(C)SC(C)c1ccccc1NC(=O)c1cn(C)nc1C(F)F (stereo not drawn) [compound 80] |  | 3.38
CCCC(C)SC(C)c1ccccc1NC(=O)c1ccccc1Br (stereo not drawn) [compound 81] |  | 4.63
CCCC(C)SC(C)c1ccccc1NC(=O)c1cn(C)nc1C (stereo not drawn) [compound 82] |  | 3.27
CCC(C)SC(C)c1ccccc1NC(=O)c1ccccc1Br (stereo not drawn) [compound 83] |  | 4.21
CCC(C)SC(C)c1ccccc1NC(=O)c1cn(C)nc1C (stereo not drawn) [compound 84] |  | 2.90
CCCC(C)SC(C)c1ccccc1NC(=O)c1cn(C)nc1C(F)F (stereo not drawn) [compound 85] |  | 3.76
CCC(C)SC(C)c1ccccc1NC(=O)C1=C(C)OCCS1 (stereo not drawn) [compound 86] |  | 4.07
CCCC(C)SC(C)c1ccccc1NC(=O)C1=C(C)OCCS1 (stereo not drawn) [compound 87] |  | 4.53
CCC(C)SC(C)c1ccccc1NC(=O)c1cn(C)cc1C(F)(F)F (stereo not drawn) [compound 88] |  | 3.92
CCC(C)SC(C)c1ccccc1NC(=O)C1=C(C)OCCS1 (stereo not drawn) [compound 89] |  | 4.10
Cc1sccc1C(=O)Nc1ccccc1C(C)SC1CCCC1 (stereo not drawn) [compound 90] |  | 3.16
Cc1occc1C(=O)Nc1ccccc1C(C)SC1CCCC1 (stereo not drawn) [compound 91] |  | 4.31
CC(SC1CCCC1)c1ccccc1NC(=O)c1ccccc1Cl (stereo not drawn) [compound 92] |  | 4.29
CC(SC1CCCC1)c1ccccc1NC(=O)c1ccccc1Br (stereo not drawn) [compound 93] |  | 4.34
Cc1nc(C(F)(F)F)c(C(=O)Nc2ccccc2C(C)SC2CCCC2)s1 (stereo not drawn) [compound 94] |  | 4.24
Cc1nn(C)cc1C(=O)Nc1ccccc1C(C)SC1CCCC1 (stereo not drawn) [compound 95] |  | 3.04
CC(SC1CCCC1)c1ccccc1NC(=O)c1cn(C)nc1C(F)(F)F (stereo not drawn) [compound 96] |  | 3.76
CC(SC1CCCC1)c1ccccc1NC(=O)c1ccccc1C(F)(F)F (stereo not drawn) [compound 97] |  | 4.41
CC1=C(C(=O)Nc2ccccc2C(C)SC(C)C)SCCO1 (stereo not drawn) [compound 98] |  | 3.65
